This is an account of results in US20240360153A1 (Regeneron Pharmaceuticals, Inc., priority 2023, published 2024).

By CLint scaled is commonly meant a measure of how fast metabolising enzymes remove a compound, apart from limits set by blood flow. The low end stands for greater metabolic stability, the high end for faster metabolism. As a reminder, the microsomal CLint is a measure of how fast metabolising enzymes remove a compound, apart from limits set by blood flow. A higher microsomal CLint goes with faster metabolism. One may read the bioavailability as the share of a dose that reaches the circulation, judged against a reference dose that is usually intravenous. A high value points to much systemic uptake. As usually defined, the Cmax is the peak of the concentration-time curve. A word on the IC50: it is the concentration that inhibits the measured activity by half. A low value points to higher potency. A word on the inhibition: it is the relative decrease from the control value, in per cent. A high value points to a response far below the control.

Data set [1] can be described thus: In vitro microsomal metabolic stability, CD-1 mouse liver microsomes. It counts as in vitro ADME. The following applies: for CLint scaled at 1 µM / microsomal CLint at 1 µM: CD-1, mouse, mouse liver microsomes, pH 7.2; for half-life at 1 µM: CD-1, pH 7.2, 0.5 mg/ml protein, NADPH; for half-life at 1 µM / Remaining (T = 60 min) / Remaining (T = NCF60 min): Mouse liver microsomes; for Remaining (T = 60 min): with NADPH; for Remaining (T = NCF60 min): without NADPH regenerating system; for Remaining (T = 60 min) / Remaining (T = NCF60 min): 60 min. In outline: (§1)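 Compounds at 1 μM incubated at 37° C with pooled CD-1 mouse or human liver microsomes (0.5 mg/mL protein) plus NADPH regenerating system in 50 mM potassium phosphate, pH 7.2, 3.3 mM MgCl2; sampled at 0–60 min, 60-min no-NADPH control. Parent loss by LC/MS/MS analyte/IS peak-area ratio, n=1.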
Background: Microsomes from liver hold many membrane-bound enzymes, among them those of drug oxidation.

The nature of data set [2]: Pharmacokinetic studies in male CD-1 mice (plasma, IV and PO). Format: in vivo, mouse. Particulars: male; for clearance / Vd / bioavailability: CD-1, plasma, mouse; for clearance / Vd / half-life: IV 2 mg/kg; for clearance: read-out: CI(mL/min/kg), compounds clearance following IV administration; for Vd: read-out: Vdss (L/kg), volume of distribution following IV administration; for bioavailability: PO 20 mg/kg vs IV 2 mg/kg; for half-life / Cmax / concentration at 8 h / concentration at 24 h: CD-1, mouse plasma; for half-life: read-out: IV T1/2 (converted); for Cmax / concentration at 8 h / concentration at 24 h: PO 20 mg/kg; for concentration at 8 h: read-out: Compound concentration at 8-hour, PO administration; for concentration at 24 h: read-out: Compound concentration at 24-hour, PO administration. As for the experimental part:
Animal experiments were carried out at Wuxi AppTec. Male 6-8 weeks old CDI mice were obtained from Hilltop Labs. Following arrival at Wuxi AppTec, mice were housed in animal rooms with environmental control (temperature: 20 to 26° C.; lighting: 12 hour light/dark cycle). Mice were fed with certified pellet diet (Certified Rodent Diet #5002 by LabDiet). Water was provided to the animals ad libitum. Mice were acclimated to the facility for at least 3 days prior to starting experiments.
Appropriate amount of test article formulated in 5% ethanol, 5% Tween-80 and 5% PEG-400, 85% water. Formulation was prepared on the day of dosing and dosed within 2 hours following preparation of formulations. Dose accuracy was determined by LC-MS/MS.
Dose formulation(s) were administered following facility SOPs. Dose volumes were determined individually prior to dosing based on animals' body weights.
About 40 μL of blood samples were collected via peripheral veins (e.g. saphenous veins) at each pre-defined time point. Blood samples were collected into tubes containing K2EDTA as anti-coagulant and kept on ice until centrifugation.
Blood samples were centrifuged at 4° C., 3000 g for 5 min within half an hour of collection. Plasma was transferred into polypropylene tubes or 96-well plates, promptly frozen on dry ice and stored at −70±10° C. until analysis by LC-MS/MS.
Test compound concentration in mouse plasma was determined with LC-MS/MS method using a calibration curve with at least 6 non-zero calibration standards.
The pharmacokinetics (PK) of the test article was analyzed using Phoenix WinNonlin software (version 8.3) and non-compartmental analysis model. Derived PK parameters include, but not limited to, C0, CLp, Vdss, Cmax, Tmax, T1/2, AUC(0-t), AUC(0-inf), MRT(0-t), MRT(0-inf) and % F (bioavailability).

Data set [3] concerns S6K1 (Thr389) phosphorylation (mTORC1 activity) in FKBP12 knock-out 293T cells. Briefly: Inhibition of S6K1 (Thr389) phosphorylation in FKBP12 knock-out 293T cells (ELISA). It counts as cell-based, human. Particulars: for selectivity for FKBP12 compared with RAD001 (in words): wild-type versus FKBP12 knock-out cells. An outline of the steps:
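CRISPR-generated FKBP12 knock-out HEK293T cells, alongside wild-type, were treated in duplicate for 2 hours at 37 °C with an 8–11-point dose range (0.001 pM–10 μM). Phospho-S6K1 Thr389 quantified by ELISA as an mTORC1 activity read-out, with DMSO as negative control.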
Background: ELISA stands for enzyme-linked immunosorbent assay.

A short description of data set [4]: In vitro microsomal metabolic stability, human liver microsomes. Format: in vitro ADME. Particulars: for Remaining (T = 60 min) / Remaining (T = NCF60 min) / half-life at 1 µM: Human liver microsomes; for Remaining (T = 60 min): with NADPH; for Remaining (T = NCF60 min): without NADPH regenerating system; for Remaining (T = 60 min) / Remaining (T = NCF60 min): 60 min; for half-life at 1 µM: 0.5 mg/ml protein, NADPH. In outline: as §1

The subject of data set [5] is S6K1 (Thr389) phosphorylation (mTORC1 activity) in wild-type (WT) 293T cells. As to the kind of experiment: Inhibition of S6K1 (Thr389) phosphorylation in wild-type 293T cells (ELISA). Format: cell-based, human. Particulars: for IC50: Homo sapiens, HEK-293T, 2 h, wild-type 293T cells, 2 hours treatment; for extent of inhibition of S6K1 (Thr389) phosphorylation: with increasing concentrations. In outline:
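WT 293T cells in DMEM + 10% FBS, grown 24 h to ~80% confluence, then treated 2 h at 37 °C in duplicate with compounds over an 8–11-point range from 0.001 pM to 10 μM. DMSO vehicle served as negative control. Phospho-S6K1 (Thr389) measured by ELISA.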

The mark [6] stands for this setting: human, human liver microsomes, pH 7.2.

On to `CO[C@@H]1CC(C[C@@H](C)[C@@H]2CC[C@H](C)/C=C(\C)[C@@H](O)[C@@H](OC)C(=O)[C@H](C)C[C@H](C)/C=C/C=C/C=C(\C)C(Nc3ccccc3)CC3CC[C@@H](C)[C@@](O)(O3)C(=O)C(=O)N3CCCC[C@H]3C(=O)O2)CC[C@H]1O` (stereo partly drawn) [Compound 26, (3S,6S,7E,9R,10R,12R,14S,15E,17E,19E,23S,26R,27R,34aS)-9,27-dihydroxy-3-((R)-1-((1S,3R,4R)-4-hydroxy-3-methoxycyclohexyl)propan-2-yl)-10-methoxy-6,8,12,14,20,26-hexamethyl-21-(phenylamino)-5,6,9,10,12,13,14,21,22,23,24,25,26,27,32,33,34,34a-octadecahydro-3H-23,27-epoxypyrido[2,1-c][1]oxa[4]azacyclohentriacontine-1,11,28,29(4H,31H)-tetraone], for which, in data set [1], the CLint scaled at 1 µM is 41.9 mL/min/kg, the microsomal CLint at 1 µM was 10.6 µL/min/mg, the half-life at 1 µM was 2.18 h and the “Remaining (T = 60 min)” value is on record as 69.80%. The “Remaining (T = NCF60 min)” value in data set [1] is given as 92.30%. In data set [2], the clearance was 2.31 mL/min/kg, the Vd turned out to be 0.828 L/kg, the bioavailability is 28.5% and the half-life is 5.25 h. Besides, in data set [2], the concentration peaked (Cmax) at 4120 ng/mL, the concentration at 8 h stood at 1320 ng/mL and the concentration at 24 h is 184 ng/mL. For the same compound, the “IC50 of inhibition of S6K1 (Thr389)” value in data set [3] (FKBP12 knock-out 293T cells) is “not measurable/detectable”. Moreover, the “inhibition of S6K1 (Thr389) phosphorylation in the absence of FKBP12 (in words)” value in data set [3] (FKBP12 knock-out cells) is recorded as “not inhibit S6K1 at any tested concentrations”. Also, in data set [3], the “selectivity for FKBP12 compared with RAD001 (in words)” value is on record as “more selective to FKBP12 compared with RAD001”. In data set [4], the “Remaining (T = 60 min)” value is listed as 6.60% and the “Remaining (T = NCF60 min)” value was 92.80%. Also, in data set [4] (setting [6]), the CLint scaled at 1 µM turned out to be 80.9 mL/min/kg and the intrinsic metabolic clearance (microsomal CLint) at 1 µM came to 89.9 µL/min/mg. In addition, the half-life at 1 µM in data set [4] (pH 7.2) amounted to 0.257 h. The half-inhibitory concentration (IC50) in data set [5] was determined as 0.55 nM. Also, the “extent of inhibition of S6K1 (Thr389) phosphorylation” value in data set [5] (wild-type cells) was “complete inhibition”.

On to `CO[C@@H]1C[C@H](C[C@@H](C)[C@@H]2CC[C@H](C)/C=C(\C)[C@@H](O)[C@@H](OC)C(=O)[C@H](C)C[C@H](C)/C=C/C=C/C=C(\C)C(Nc3cnon3)C[C@@H]3CC[C@@H](C)[C@@](O)(O3)C(=O)C(=O)N3CCCCC3C(=O)O2)CC[C@H]1O` (stereo partly drawn) [Compound 45, (3S,6S,7E,9R,10R,12R,14S,15E,17E,19E,23S,26R,27R,34aS)-21-((1,2,5-oxadiazol-3-yl)amino)-9,27-dihydroxy-3-((R)-1-((1S,3R,4R)-4-hydroxy-3-methoxycyclohexyl)propan-2-yl)-10-methoxy-6,8,12,14,20,26-hexamethyl-5,6,9,10,12,13,14,21,22,23,24,25,26,27,32,33,34,34a-octadecahydro-3H-23,27-epoxypyrido[2,1-c][1]oxa[4]azacyclohentriacontine-1,11,28,29(4H,31H)-tetraone], for which, in data set [1], the CLint scaled at 1 µM came to 64.8 mL/min/kg, the microsomal CLint at 1 µM amounted to 16.4 µL/min/mg, the half-life at 1 µM came to 1.41 h and the “Remaining (T = 60 min)” value came to 64.30%. Moreover, the “Remaining (T = NCF60 min)” value in data set [1] is given as 81.40%. For the same compound, in data set [2], the clearance stood at 1.13 mL/min/kg, the Vd turned out to be 0.475 L/kg, the bioavailability came out at 17% and the half-life was 5.63 h. In data set [2], the peak level (Cmax) was 9180 ng/mL, the concentration at 8 h was determined as 1520 ng/mL and the concentration at 24 h was determined as 239 ng/mL. In addition, the “inhibition of S6K1 (Thr389) phosphorylation in the absence of FKBP12 (in words)” value in data set [3] (FKBP12 knock-out cells) is “much less inhibition of S6K1 phosphorylation”. The “fold less potent compared with RAD001” value in data set [3] (FKBP12 knock-out cells, at similar level of inhibition) is about 100 fold. The compound also displayed an inhibition at 10 µM in data set [3] (Homo sapiens, HEK-293T, FKBP12 knock-out cells, 10 μM (highest tested concentration)) of about 25%. In addition, the “selectivity for FKBP12 compared with RAD001 (in words)” value in data set [3] was “relatively more selective for FKBP12 compared with RAD001”. For the same compound, in data set [4], the “Remaining (T = 60 min)” value was 0.00% and the “Remaining (T = NCF60 min)” value was found to be 71.30%. The same compound yielded a microsomal CLint at 1 µM in data set [4] (setting [6]) of 194 µL/min/mg. In addition, in data set [4] (pH 7.2), the half-life at 1 µM came to 0.119 h. The compound also returned an IC50 in data set [5] of 8.4 nM. For the same compound, in data set [5] (wild-type cells), the “fold lower potency compared with RAD001 (by IC50)” value is listed as about 18 fold and the “extent of inhibition of S6K1 (Thr389) phosphorylation” value is listed as “completely inhibit”.
